Like-named read-outs stand apart in the source and are kept apart here.
Assays:
HBO1-KAT7 = HBO1-KAT7 (Homo sapiens (Human), UniProt O95251); experiment: biochemical
TIP60-KAT5 = TIP60-KAT5 (Homo sapiens (Human), UniProt Q92993); experiment: biochemical
MOZ-KAT6A = MOZ-KAT6A (Homo sapiens (Human), UniProt Q92794); experiment: biochemical
KAT6A = KAT6A (Homo sapiens (Human), UniProt Q92794); experiment: KAT assay protocol (SAMDI mass spectrometry), KAT6A; format: biochemical; details: for inhibition at 1 µM: 1 μM compound; for IC50: 1 μM AcCoA; for Ki: 10 μM AcCoA, Morrison equation
Chain of KAT6A (Q92794 whole entry): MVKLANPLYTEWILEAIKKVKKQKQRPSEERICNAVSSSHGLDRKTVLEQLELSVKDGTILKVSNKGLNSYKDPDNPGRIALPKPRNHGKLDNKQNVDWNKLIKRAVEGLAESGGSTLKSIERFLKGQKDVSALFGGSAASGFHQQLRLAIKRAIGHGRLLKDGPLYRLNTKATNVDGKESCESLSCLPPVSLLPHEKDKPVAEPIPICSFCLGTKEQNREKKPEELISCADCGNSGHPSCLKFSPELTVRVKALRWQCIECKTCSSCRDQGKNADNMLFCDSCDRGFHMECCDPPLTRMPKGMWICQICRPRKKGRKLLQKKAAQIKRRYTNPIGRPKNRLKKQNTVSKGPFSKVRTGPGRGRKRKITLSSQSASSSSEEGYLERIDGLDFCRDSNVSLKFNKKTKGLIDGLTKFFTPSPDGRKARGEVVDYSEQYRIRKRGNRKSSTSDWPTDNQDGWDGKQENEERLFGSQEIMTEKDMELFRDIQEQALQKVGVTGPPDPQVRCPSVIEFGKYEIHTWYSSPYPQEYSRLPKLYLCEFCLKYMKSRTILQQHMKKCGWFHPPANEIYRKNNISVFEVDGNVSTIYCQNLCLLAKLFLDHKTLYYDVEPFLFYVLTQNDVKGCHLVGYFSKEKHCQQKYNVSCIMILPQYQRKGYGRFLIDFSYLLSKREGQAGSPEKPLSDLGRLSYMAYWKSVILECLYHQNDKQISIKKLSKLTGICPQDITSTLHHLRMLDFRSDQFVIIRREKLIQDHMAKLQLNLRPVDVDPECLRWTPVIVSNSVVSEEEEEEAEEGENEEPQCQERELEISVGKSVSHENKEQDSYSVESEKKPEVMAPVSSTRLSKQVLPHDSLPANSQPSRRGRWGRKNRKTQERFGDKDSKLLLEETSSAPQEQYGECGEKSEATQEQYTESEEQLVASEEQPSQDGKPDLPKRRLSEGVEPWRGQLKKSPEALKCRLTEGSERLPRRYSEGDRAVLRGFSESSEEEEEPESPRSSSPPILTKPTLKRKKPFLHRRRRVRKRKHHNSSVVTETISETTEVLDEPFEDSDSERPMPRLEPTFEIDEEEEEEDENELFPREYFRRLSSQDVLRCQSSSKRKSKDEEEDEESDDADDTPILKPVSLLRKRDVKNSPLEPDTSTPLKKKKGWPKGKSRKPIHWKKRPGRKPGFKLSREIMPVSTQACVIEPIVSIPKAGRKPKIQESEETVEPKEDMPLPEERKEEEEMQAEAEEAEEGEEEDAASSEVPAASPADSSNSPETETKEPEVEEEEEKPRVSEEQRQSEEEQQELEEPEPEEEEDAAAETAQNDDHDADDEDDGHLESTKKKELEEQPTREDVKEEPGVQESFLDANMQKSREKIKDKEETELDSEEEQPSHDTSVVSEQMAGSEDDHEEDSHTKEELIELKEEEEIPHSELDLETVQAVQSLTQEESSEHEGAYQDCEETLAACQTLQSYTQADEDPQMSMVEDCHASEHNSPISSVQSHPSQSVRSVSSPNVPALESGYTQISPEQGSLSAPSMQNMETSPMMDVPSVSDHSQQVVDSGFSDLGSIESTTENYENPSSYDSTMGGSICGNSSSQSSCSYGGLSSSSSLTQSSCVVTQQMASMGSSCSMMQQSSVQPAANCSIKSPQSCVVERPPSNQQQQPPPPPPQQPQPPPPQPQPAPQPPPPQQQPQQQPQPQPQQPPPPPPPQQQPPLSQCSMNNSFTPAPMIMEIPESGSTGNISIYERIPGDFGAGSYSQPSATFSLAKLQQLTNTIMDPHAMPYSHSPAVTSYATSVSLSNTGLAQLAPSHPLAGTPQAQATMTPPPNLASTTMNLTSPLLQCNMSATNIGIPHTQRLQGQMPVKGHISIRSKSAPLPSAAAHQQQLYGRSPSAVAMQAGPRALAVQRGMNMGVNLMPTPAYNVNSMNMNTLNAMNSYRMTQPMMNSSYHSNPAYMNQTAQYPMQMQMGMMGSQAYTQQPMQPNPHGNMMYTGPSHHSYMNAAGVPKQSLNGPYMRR
Procedure: Biological Assay Section 1 KAT Assay Protocol:
A. Compound Preparation • 1. Prepare 10 mM stock solutions in 100% DMSO from solid material • 2. Serial dilute 10 mM, 1 mM or 0.1 mM compound stocks 3-fold in 100% DMSO for 11-point dose response
B. Reagent Preparation • 1. Prepare 1× assay buffer containing 10 mM Tris HCL pH 8.0, 2.5 mM NaCl, 0.5 mM EDTA, 0.005% BSG and 0.02% Tween-20 • 2. Dilute Histone peptide (CPC Scientific) and AcCoA (Sigma) together in assay buffer to 2×. • 3. Dilute KAT enzyme in assay buffer to 2×.
C. Enzyme Reaction • 1. Final reaction conditions for each KAT assay in a 20 ul assay reaction volume: • i. […] Add 0.5 ul of diluted compound to the assay plate (384-well V-bottom polypropylene plates) or 0.5 ul of DMSO for control wells. • 3. Add 10 ul of 2× Histone peptide/2× AcCoA mix to the assay plate. • 4. Add 10 ul of 2× enzyme to the assay plate. • 5. Stop the reaction after the indicated time with the addition of 2 ul of 5% formic acid • 6. Each reaction was analyzed using self-assembled monolayer desorption/ionization time-of-flight mass spectrometry (Mrksich, Milan (2008) Mass Spectrometry of Self-Assembled Monolayers: A New Tool for Molecular Surface Science ACS Nano 2008 2 (1), 7-18; SAMDI Tech, Inc. (Chicago, IL)). • 7. Area under the curve (AUC) for both substrate and product peaks was determined for KAT6A at M.W. 2723 [Substrate+H]^+ and 2765 [Product+H]^+ with a +/−1 Da tolerance, respectively. • 8. Percent conversion to product was calculated by: AUCProduct/(AUCSubstrate+AUCProduct).
D. Data Analysis • 1. IC50 values were determined by fitting the % conversion at each inhibitor concentration to the 4-parameter IC50 equation using Pfizer proprietary curve fitting software. • 2. Ki values were determined by fitting the % conversion at each inhibitor concentration to the Morrison equation for tightbinding competitive inhibitors using Pfizer proprietary curve fitting software. Materials
KAT enzymes were expressed using a baculovirus expression system and purified at Pfizer, La Jolla. Histone H3 (1-21) peptide ([…], SEQ ID NO:3) was purchased from CPC Scientific (Sunnyvale, CA). Acetyl coenzyme A was purchased from Sigma-Aldrich (St. Louis, MO). All other biochemical reagents were purchased from Sigma-Aldrich or ThermoFisher Scientific (Waltham, MA).
[…] 10 ul of 2× Histone peptide/AcCoA mix was added to a 384-well V-bottom polypropylene assay plate containing 0.5 ul of serially diluted test compound in 100% dimethyl sulfoxide (DMSO). To start the reaction, 10 ul of 2× enzyme solution was added to the assay plate. KAT assays were terminated after 30-60 minutes with the addition of 2 ul of 5% formic acid. KAT6A used histone H3 (1-21) peptide. The final enzyme concentration for KAT6A was 15 nM. Each reaction was analyzed using self-assembled monolayer desorption/ionization time-of-flight mass spectrometry (Mrksich, Milan (2008) Mass Spectrometry of Self-Assembled Monolayers: A New Tool for Molecular Surface Science ACS Nano 2008 2 (1), 7-18; SAMDI Tech, Inc. (Chicago, IL)).
Area under the curve (AUC) for both substrate and product peaks was determined for KAT6A at M.W. 2723 [Substrate+H]^+ and 2765 [Product+H]^+ with a +/−1 Da tolerance, respectively. Percent conversion to product was calculated by: AUCProduct/(AUCSubstrate+AUCProduct). IC50 values were determined by fitting the % conversion at each inhibitor concentration to the 4-parameter IC50 equation using Pfizer proprietary curve fitting software. Ki values were determined by fitting the % conversion at each inhibitor concentration to the Morrison equation for tightbinding competitive inhibitors using Pfizer proprietary curve fitting software.

[1] = read-out: KAT6A IC50 at 1 μM AcCoA

Chain of TIP60-KAT5 (Q92993 other isoform, or with tags, fused parts or gaps): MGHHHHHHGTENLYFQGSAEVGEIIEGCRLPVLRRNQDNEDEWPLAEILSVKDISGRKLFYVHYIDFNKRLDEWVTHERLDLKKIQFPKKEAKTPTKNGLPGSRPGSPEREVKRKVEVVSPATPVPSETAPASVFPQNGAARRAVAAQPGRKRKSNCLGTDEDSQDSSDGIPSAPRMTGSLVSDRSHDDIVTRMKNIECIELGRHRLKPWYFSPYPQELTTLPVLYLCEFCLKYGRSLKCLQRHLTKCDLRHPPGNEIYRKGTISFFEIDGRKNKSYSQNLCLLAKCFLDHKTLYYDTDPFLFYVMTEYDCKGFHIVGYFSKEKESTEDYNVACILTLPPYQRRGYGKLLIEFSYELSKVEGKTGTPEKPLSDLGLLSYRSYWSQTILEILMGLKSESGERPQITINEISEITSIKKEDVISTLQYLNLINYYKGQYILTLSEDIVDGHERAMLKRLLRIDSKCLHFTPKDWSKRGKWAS
Chain of HBO1-KAT7 (O95251 other isoform, or with tags, fused parts or gaps): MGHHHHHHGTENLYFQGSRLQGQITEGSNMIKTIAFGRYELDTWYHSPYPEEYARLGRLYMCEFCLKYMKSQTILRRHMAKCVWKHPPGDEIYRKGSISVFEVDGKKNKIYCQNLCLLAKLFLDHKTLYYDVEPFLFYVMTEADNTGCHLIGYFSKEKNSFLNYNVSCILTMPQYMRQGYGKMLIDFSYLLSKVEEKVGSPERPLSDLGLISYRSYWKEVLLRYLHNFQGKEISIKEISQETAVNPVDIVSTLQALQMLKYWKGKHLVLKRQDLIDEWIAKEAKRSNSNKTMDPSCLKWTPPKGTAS
Chain of MOZ-KAT6A (Q92794 other isoform, or with tags, fused parts or gaps): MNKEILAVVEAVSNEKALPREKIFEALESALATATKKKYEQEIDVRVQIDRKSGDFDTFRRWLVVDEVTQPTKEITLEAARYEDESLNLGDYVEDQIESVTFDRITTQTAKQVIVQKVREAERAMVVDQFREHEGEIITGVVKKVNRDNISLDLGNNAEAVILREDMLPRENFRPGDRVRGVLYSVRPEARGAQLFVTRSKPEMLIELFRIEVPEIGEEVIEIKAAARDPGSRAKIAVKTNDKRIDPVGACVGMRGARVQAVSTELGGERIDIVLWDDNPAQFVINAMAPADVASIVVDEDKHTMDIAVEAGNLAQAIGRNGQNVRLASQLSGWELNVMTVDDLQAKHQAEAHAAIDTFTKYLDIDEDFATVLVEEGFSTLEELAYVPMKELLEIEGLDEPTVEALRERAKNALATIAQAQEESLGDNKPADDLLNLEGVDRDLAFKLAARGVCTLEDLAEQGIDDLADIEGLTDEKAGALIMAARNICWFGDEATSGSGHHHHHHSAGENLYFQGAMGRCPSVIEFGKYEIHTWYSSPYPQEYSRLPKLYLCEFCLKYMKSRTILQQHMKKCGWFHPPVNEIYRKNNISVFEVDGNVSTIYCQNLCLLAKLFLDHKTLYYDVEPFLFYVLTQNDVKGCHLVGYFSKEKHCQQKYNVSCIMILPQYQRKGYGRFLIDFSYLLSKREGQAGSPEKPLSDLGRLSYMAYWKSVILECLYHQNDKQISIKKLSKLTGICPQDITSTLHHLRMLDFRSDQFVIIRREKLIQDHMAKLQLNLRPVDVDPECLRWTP

## COc1cc(Cn2cccn2)cc2onc(NS(=O)(=O)CC3CCCCC3)c12 [Example 123]
HBO1-KAT7
  IC50: 1260 nM
TIP60-KAT5
  IC50: 9040 nM
MOZ-KAT6A
  IC50: 15 nM
KAT6A
  inhibition at 1 µM: 85%
KAT6A; KAT6A IC50 at 1 μM AcCoA
  IC50: 28.9 nM
KAT6A; KAT6A Ki at 10 μM AcCoA
  Ki: 5.44 nM

## COc1cc(Cn2cccn2)cc2onc(NS(=O)(=O)C3CCCCC3)c12 [Example 124]
HBO1-KAT7
  IC50: 440 nM
TIP60-KAT5
  IC50: 2400 nM
MOZ-KAT6A
  IC50: 30 nM
KAT6A
  inhibition at 1 µM: 88%
KAT6A; KAT6A IC50 at 1 μM AcCoA
  IC50: 117 nM

## COc1cc(Cn2cccn2)cc2onc(NS(=O)(=O)CC(C)OCC3CCCC3)c12 (stereo not drawn) [Example 127]
KAT6A; KAT6A IC50 at 1 μM AcCoA
  IC50: 36 nM

## COc1cc(Cn2cccn2)cc2onc(NS(=O)(=O)CC(C)C)c12 [Example 128]
KAT6A; [1]
  IC50: 128 nM

## COc1cc(Cn2cccn2)cc2onc(NS(=O)(=O)CCN3CCCC3)c12 [Example 129]
KAT6A
  inhibition at 1 µM: 16%

## COc1cc(Cn2cccn2)cc2onc(NS(=O)(=O)CCN3CCOCC3)c12 [Example 130]
KAT6A; KAT6A IC50 at 1 μM AcCoA
  IC50: 187 nM

## COc1cc(Cn2cccn2)cc2onc(NS(=O)(=O)NC3CCCCC3)c12 [Example 131]
KAT6A; [1]
  IC50: 6 nM
KAT6A; read-out: KAT6A Ki at 10 μM AcCoA
  Ki: 3 nM

## COc1cc(Cn2cccn2)cc2onc(NS(=O)(=O)N(C)C3CCCCC3)c12 [Example 132]
KAT6A; KAT6A IC50 at 1 μM AcCoA
  IC50: 9 nM
KAT6A; KAT6A Ki at 10 μM AcCoA
  Ki: 4 nM

## COc1cc(Cn2cccn2)cc2onc(NS(=O)(=O)C[C@H]3C[C@@H](C)C3)c12 [Example 133]
KAT6A; KAT6A IC50 at 1 μM AcCoA
  IC50: 40 nM

## COc1cc(Cn2cccn2)cc2onc(NS(=O)(=O)C[C@H]3C[C@H](C)C3)c12 [Example 134]
KAT6A; KAT6A IC50 at 1 μM AcCoA
  IC50: 40 nM
